According to patent publication EP0738149B1 (priority 1994, dated 1995):
Counter-ions that a name gives are not always drawn. Like-named read-outs stand apart in the source and are kept apart here.

Key:
mice [1] = assay: Neurotoxicity in mice (rotorod ataxia test), i.p.
Experimental: (§1) Neurotoxicity of the claimed agents was also assessed in mice (i.p. administration) by the rotorod ataxia test and/or in rats (p.o. administration) by positional sense test and gait stance test. […] The term quantitating the neurotoxicity is the medial neurological toxic dose (TD50), was determined in the above tests.

[2] = Neurotoxicity in mice (rotorod ataxia test), i.p.; conditions: mouse, in vivo, ip
Experimental: as §1

in vivo = conditions: rat, in vivo, po
Experimental: as §1

mice [3] = conditions: Table 16; for MICE scMet ED50: i.p.; for ED50: Mus musculus, ip, read-out: MICE scMet ED50, mice, i.p.
rats [4] = assay: Maximal electroshock (MES) model in rats, p.o.;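 on all read-outs here: rat MES model gauging antiepileptic efficacy versus generalized and partial seizures after oral dosing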; assay type: in vivo; conditions: rats, p.o., Table 15; for ED50: Rattus norvegicus, po, read-out: RATS MES 50
mice [5] = assay: Maximal electroshock (MES) model in mice, i.p.;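 on all read-outs here: Electroshock-induced convulsion model serving to demonstrate antiepileptic efficacy against generalized and partial seizures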; assay type: in vivo; conditions: for ED50: Mus musculus, ip; for ED50 / MICE MES ED50: Table 15; for MICE MES ED50: i.p.
rats [6] = assay: Neurotoxicity in rats (positional sense test and gait stance test), p.o.; conditions: rats, p.o.
Experimental: as §1

rats [7] = conditions: Rattus norvegicus, po, read-out: RATS scMet ED50

Structure (SMILES)	MICE TD50 (mice [1]; mice, i.p., Table 15) [mg/kg]	MICE TD50 (mice [1]; mice, i.p., Table 16) [mg/kg]	TD50 ([2]; MICE TD50, mice, Table 16) [mg/kg]	TD50 (in vivo) [mg/kg]	MICE scMet ED50 (mice [3]) [mg/kg]	RATS MES 50 (rats [4]) [mg/kg]	ED50 (mice [5]) [mg/kg]	MICE MES ED50 (mice [5]) [mg/kg]	ED50 (mice [3]) [mg/kg]	RATS TD50 (rats [6]; Table 16) [mg/kg]	ED50 (rats [7]) [mg/kg]	ED50 (rats [4]) [mg/kg]	further results
NC(=O)CNC1CCc2ccccc21 (racemic) [Example 3, (rac)-N-(2-Acetamido)-1-aminoindan.HCl]	>100	126	127	> 50	36	<50	83	<100	–	–	–	–	TD50 ([2]; MICE TD50, mice, Table 15): 127 mg/kg; MICE scMet ED50 (mice [3]; listed as 3*): >130 mg/kg
NC(=O)CNC1CCc2ccc(F)cc21 (racemic) [Example 5, (rac)-6-Fluoro-N-(2-acetamido)-1-aminoindan.HCl]	>300	–	138	–	–	–	< 100	58	> 200	–	–	–	activity in the MES model in mice (mice [5]; statement in words): showed activity
O=CNC1CCc2ccccc21 (racemic) [Example 8, (rac)-N-Formyl-1-aminoindan]	–	–	–	> 500	–	–	–	–	–	>500	> 250	24	–
COc1ccc2c(c1)C(NC(C)=O)CC2 (racemic) [Example 26, (rac) 6-methoxy-N-acetyl-1-aminoindan]	–	–	–	> 500	–	–	–	–	–	>500	> 250	40	–
O=C(NC1CCc2ccccc21)c1ccccc1 (racemic) [Example 46, (rac)-N-Benzoyl-1-aminoindan]	–	–	–	–	–	–	82	–	> 500	–	–	–	MICE TD50 (mice [1]; mouse, in vivo, ip): >500 mg/kg; TD50 ([2]; MICE TD50): 500 mg/kg
Cl.NC(=O)CN[C@@H]1CCc2ccccc21 [D, (R)-Indanylglycinamide-HCl salt]	127	127	–	–	>130	105	–	83	–	>180	–	–	RATS TD50 (rats [6]; Table 15): >180 mg/kg
